In US20240041830A1, “CIRCULATING BIOMARKERS OF RESPONSE TO PD-1/PD-L1 BLOCKADE AND GSK-3 INHIBITION” (Brown University, priority 2022, published 2024):

Key:
Format in all cases: cell-based, human
TALL-104 [1] = assay: microarray analysis; details: 1 μM, 24 hours, vs untreated
Experimental: (§1) Microarrays. A total of 0.5×10^6 tumor cells (HCT-116, HT-29, KM12C) were plated in a 6-well plate and allowed to adhere overnight before 24-hour treatment, as indicated. Then, 1×10^6 immune cells (NK92, TALL-104) were plated and treated with elraglusib as indicated for twenty-four h. RNA was isolated from cell pellets in batches of six using a RNeasy Plus Mini Kit (Cat #74134, Qiagen, Hilden, Germany). Acceptable RNA concentration and quality were verified with Nanodrop and Bioanalyzer measurements. GeneChip™ Human Transcriptome Array 2.0 assays were conducted according to manufacturer instructions in two batches using randomized samples to limit batch effects (Cat #902162, Applied Biosystems, Waltham, MA, USA). Applied Biosystems Transcriptomic Analysis Console (TAC) software (RRID: SCR_016519) was used to calculate fold changes in gene expression relative to the untreated control cells. Values were considered statistically significant for p values<0.05.
(§2) Microarray analysis was used to obtain insights into gene expression changes in immune cell lines post-GSK-3 inhibition with elraglusib. Immune cell lines (TALL-104, NK-92) were treated with elraglusib at IC50 concentrations or DMSO as vehicle control for twenty-four hours and treated versus untreated samples were compared in triplicate using microarray analysis. FIG. 11. Results were calculated using a fold-change (FC) cutoff of >1.5, <−1.5, and a minimum p-value of <0.05. NK-92 cells had sixty-one differentially expressed genes post-treatment (FIG. 3D). the inventors observed an increase in genes that promote immune cell proliferation (TNFSF14, RAB38) and control immune cell adhesion and migration (WNK1) post-elraglusib treatment.
TABLE 12 description. TALL-104 immune cell microarray analysis. TALL-104 immune cells were treated with 1 μM elraglusib for 24 hours and treated versus untreated control samples were compared in triplicate via microarray analysis (N=3). Table showing differentially expressed genes of interest with their corresponding fold changes, p values, descriptions, and functions. Genes are ordered by fold change and were calculated using a fold change cutoff of >1.5, <−1.5, and a minimum p value of <0.05.

SW480 = assay: multicolor co-culture of SW480 and TALL-104 T cells
Description: Multicolor immune cell co-culture experiments.
Elraglusib sensitizes tumor cells to immune-mediated cytotoxicity. […] FIG. 8A. TALL-104 cells are a human leukemic T cell line.
FIG. 1A. […] FIG. 1B. […] FIG. 1C. […] FIG. 1D. […] FIG. 1E. […] FIG. 1F.

TALL-104 [2] = assay: Western blot analysis; details: as treatment duration increased (0-72 hours)
Experimental: Western blot analysis. Cells were plated in a 6-well plate and incubated overnight before the spent media was replaced with drugged media. Drug treatment lasted for indicated durations. Protein was extracted using radioimmunoprecipitation (RIPA) assay buffer (Cat #R0278, Sigma-Aldrich, St. Louis, MO, USA) containing cOmplete™, Mini, EDTA-free Protease Inhibitor Cocktail (Cat #4693159001, Roche, Basel, Switzerland) from sub-confluent cells. Denaturing sample buffer was added, samples were boiled at 95° C. for ten minutes, and an equal amount of protein lysate was electrophoresed through NuPAGE™ 4 to 12%, bis-Tris, 1.5 mm, Mini Protein Gels (Invitrogen, Waltham, MA, USA) then transferred to PVDF membranes. The PVDF membrane was blocked with 5% non-fat milk (Sigma-Aldrich, St. Louis, MO, USA) in 1× TTBS. Primary antibodies were incubated with the transferred PVDF membrane in blocking buffer at 4° C. overnight. […] The signal was detected using Pierce™ ECL Western Blotting Substrate (Cat #32106, Thermo Scientific, Waltham, MA, USA) and a Syngene Imaging System (RRID: SCR_015770).
Elraglusib enhances immune cell effector function. the inventors next analyzed immune cell lines (TALL-104, NK-92) using western blot analysis.

NK-92 = assay: microarray analysis; details: 1 μM, 24 hours, vs untreated
Experimental: as §1, §2
TABLE 11 description. NK-92 immune cell microarray analysis. NK-92 immune cells were treated with 1 μM elraglusib for 24 hours and treated versus untreated control samples were compared in triplicate via microarray analysis (N=3).

In the case of `Cn1cc(C2=C(c3coc4ccc(F)cc34)C(=O)NC2=O)c2cc3c(cc21)OCO3` [elraglusib], the “ACVR1B Fold Change” value (TALL-104 [1]) was −1.61, the “BCL2A1 Fold Change” value (TALL-104 [1]) was 1.63 and the “CAMK1D Fold Change” value (TALL-104 [1]) was −2.5. For the same compound, the “CCL3 Fold Change” value (TALL-104 [1]) was 1.52, the “CCR8 Fold Change” value (TALL-104 [1]) was −2.14 and the “CD84 Fold Change” value (TALL-104 [1]) was −1.53. For the same compound, the “CKS1B Fold Change” value (TALL-104 [1]) was 1.6, the “DUSP6 Fold Change” value (TALL-104 [1]) was −1.66 and the “HSPA1A Fold Change” value (TALL-104 [1]) was −1.63. For the same compound, the “KIF7 Fold Change” value (TALL-104 [1]) was 1.56, the “ORAI3 Fold Change” value (TALL-104 [1]) was 1.51 and the “PPARA Fold Change” value (TALL-104 [1]) was −1.54. For the same compound, the “PTPN3 Fold Change” value (TALL-104 [1]) was −1.56, the “PTPN14 Fold Change” value (TALL-104 [1]) was −1.62 and the “RNY4 Fold Change” value (TALL-104 [1]) was 2.19. The “RNY5 Fold Change” value (TALL-104 [1]) was 1.66, the “STX19 Fold Change” value (TALL-104 [1]) was 1.58 and the “UBE3A Fold Change” value (TALL-104 [1]) was −1.73. The “VAMP8 Fold Change” value (TALL-104 [1]) was 1.56, the “dead cells out of total cells” value (SW480; co-culture with TALL-104, 5 μM, 24 hours, E:T 1:1, normalized, without drug approximately 45%) was 60% and the “dead cells out of total cells” value (SW480; co-culture with TALL-104, 10 μM, 24 hours, E:T 1:1, normalized, without drug approximately 45%) was 65%. For the same compound, the “dead cells out of total cells” value (SW480; tumor cells pre-treated 5 μM for twenty-four hours, then co-cultured with TALL-104) was 65%, the Bcl-2 expression (TALL-104 [2]) was “did not notice significant changes” and the NF-κB expression (TALL-104 [2]) was “did not notice significant changes”. For the same compound, the “ITGB8 Fold Change” value (NK-92) was −1.53, the “MIR186 Fold Change” value (NK-92) was −1.52 and the “NAP1L1 Fold Change” value (NK-92) was −1.51. For the same compound, the “RAB38 Fold Change” value (NK-92) was 1.65, the “RNY5 Fold Change” value (NK-92) was 3.32 and the “S100A12 Fold Change” value (NK-92) was −1.78. For the same compound, the “TNFSF14 Fold Change” value (NK-92) was 1.5 and the “WNK1 Fold Change” value (NK-92) was 1.5.
